# Laboratory results reported in JPH0776588A, “p−ボロノフェニルアラニン誘導体、その製造方法及び該誘導体の中間体化合物” (Nippon Aluminum Alkyls Ltd, priority 1993, dated 1995).
# Tests used:
# B16 cells [B16細胞] = assay: Permeability (浸透性) into B16 cells, residual intracellular boron by ICP-MS; type: cell-based, human; conditions: 24 h
# [1] = Cytotoxicity in cultured  (B16); type: cell-based, human; conditions: human, B16 cells
# 水溶性値 (water solubility) = type: physicochemical; conditions: for solubility: water, M (mol dm-3)
# [2] = system: TIG-1-20 human infant germ cells (T20) [TIG−1−20ヒト乳児胚芽細胞(T20)]; assay: Permeability (浸透性) into T20 cells, residual intracellular boron by ICP-MS; type: cell-based; conditions: boron compound 0.4 mmol, 37°C, 24 h
# [3] = system: B-16 human melanoma cells (B16) [B−16ヒト黒色癌細胞(B16)]; assay: Cytotoxicity in cultured  (B16); type: cell-based; conditions: 50% or more not killed even after 3 days at 1.77×10^-2 M
# [4] = permeability B16 versus T20, 37°C
smiles,measurement,setting,value
"NC(Cc1ccc(B(O)O)cc1)C(=O)O (racemic) [BPA, p−ボロノフェニルアラニン, reference compound]",selectivity for B16 over T20 (in words),B16 cells [B16細胞]; [4],殆ど選択性がない
same,IC50 at 72 h,[1]; similar culture conditions (compound (1): after 3 days),8.55 mM
same,solubility,水溶性値 (water solubility),7.66 mM
NC(Cc1ccc(B(O)O)cc1)C(=O)NC(CO)CO (stereo not shown) [化合物(1)],"permeability into B16 cells (in words, versus BPA)","B16 cells [B16細胞]; boron compound 0.4 mmol, 37°C",BPAよりわずかに高い浸透性
same,selectivity for B16 over T20,B16 cells [B16細胞]; [4],≥ 5 fold
same,"permeability into T20 cells (in words, versus BPA)",[2],BPAよりはるかに低かった
same,IC50 (in words),[3],高い
same,"cytotoxicity at 72 h, 17700 µM","[1]; compound at 1.77×10^-2 M, even after 3 days, read-out: cells killed",< 50%
same,water solubility value relative to BPA,水溶性値 (water solubility); ratio to BPA,~100 fold
same,solubility,水溶性値 (water solubility),660 mM
